In patent US20240208937A1, “Compounds and Their Use for Treatment of Hemoglobinopathies” (Bristol-Myers Squibb Company, priority 2022, published 2024):

Columns and labels:
Format in all cases: cell-based
[1] = tested on: fetal hemoglobin (HbF) in GCSF-mobilized human CD34+ cells; experiment: HbF Induction Assay; conditions: 168 h; compound 1 μM, 7 days, erythroid-differentiated human CD34+ cells, flow cytometry; DMSO baseline 15% HbF positive cells
Experimental: The expansion, differentiation, and maturation of GCSF-mobilized human CD34^+ (STEMCELL Technologies Inc.) cells towards erythroid lineage cells were performed using a two-phase liquid culture model (Moutouh-de Parseval L A, el al. Pomalidomide and lenalidomide regulate erythropoiesis and fetal hemoglobin production in human CD34+ cells. J Clin Invest. 2008 January; 118(1):248-58). In the first phase, GCSF-mobilized human CD34^+ cells were cultured using StemSpan™-XF (STEMCELL Technologies Inc.) media supplemented with 1×BIT 9500, Penicillin-Streptomycin (50 U/mL), 100 ng/mL recombinant human (rh) SCF, 100 ng/mL rh Flt3-L, 20 ng/mL rh IL-3 and 10 ng/mL rh EPO and the growth of cells maintained in exponential phase for 7 days at 37° C. with 5% CO2 to support expansion and progenitor differentiation prior the second phase and treatment with compounds. In the second phase, culture media was changed to StemSpan™-XF media supplemented with 1×BIT 9500, Penicillin-Streptomycin (50 U/mL), 50 ng/mL rh SCF and 40 ng/mL rh EPO to promote further differentiation and maturation of the erythrocytes and to initiate treatment with compounds. Compounds were dispensed in duplicate at a final concentration of 1 μM in a final DMSO amount of 0.1%. Fresh compound was reapplied, and cell density was kept constant every 2 days. After 7 days, the cells were assessed for viability and fetal hemoglobin expression using flow cytometry. For viability analysis, eBioscience™ Fixable Viability Dye eFluor™ 780 (1:1000, eBioscience; Cat #65-0865-14) was added to the cells and kept in the dark for 10 minutes. For analysis of fetal hemoglobin (HbF), cells were fixed and permeabilized using Fixation Buffer (BioLegend; Cat #420801 and Intracellular staining permeabilization buffer (BioLegend, Cat #420201) following manufacturer's instructions. During permeabilization step, cells were stained with PE-labelled Mouse Anti-Human Fetal Hemoglobin (1:10, clone 2D12; BD Biosciences, Cat #BDB560041) incubated at room temperature for 20 minutes and protected from light. PE-labelled Mouse anti-IgG k, (1:10 clone MOPC-21; BD Biosciences, Cat# BDB551436) was used as an isotype control.
Viability, cell count, and fetal hemoglobin (HbF) levels were measured using an Attune NXT flow cytometer (Thermofisher) and the data analyzed using the FCS express software (De Novo Software). In Table 1 below, the effects of compounds of formula (I), formula (I′), formula (II), formula (II′), and formula (III) on % viable cells, viable cell count, on the % HbF positive cells and the median fluorescent intensity (MFI) of the HbF positive cell population compared to the DMSO controls can be viewed. All gates were set using the isotype negative control. The baseline % HbF positive cells for DMSO-treated control cells was 15%. Compounds of formula (I), formula (I′), formula (II), formula (II′), and formula (III) having HbF induction between 66% and 100% are level A. Compounds of formula (I), formula (I′), formula (II), formula (II′), and formula (III) having HbF induction between 33% and 66% are level B. Compounds of formula (I), formula (I′), formula (II), formula (II′), and formula (III) having HbF induction % less than 33% are level C. For certain compounds of formula (I), formula (I′), formula (II), formula (II′), and formula (III) % HbF induction values 0-33% (activity level C), between 33% and 66% (activity level B), and between 67% and 100% (activity level A) are shown in Table 2 below.

[2] = biological target: WIZ (Widely interspaced zinc finger) (Homo sapiens (Human), UniProt O95785+Q96SW2); experiment: HUDEP-2 WIZ HiBiT degradation assay; conditions: HUDEP-2 WIZ HiBiT cells, 24 hours treatment, luminescence; for DC50: read-out: WIZ EC50
Chain of WIZ (Widely interspaced zinc finger) (O95785 whole entry, the tested form may be a part): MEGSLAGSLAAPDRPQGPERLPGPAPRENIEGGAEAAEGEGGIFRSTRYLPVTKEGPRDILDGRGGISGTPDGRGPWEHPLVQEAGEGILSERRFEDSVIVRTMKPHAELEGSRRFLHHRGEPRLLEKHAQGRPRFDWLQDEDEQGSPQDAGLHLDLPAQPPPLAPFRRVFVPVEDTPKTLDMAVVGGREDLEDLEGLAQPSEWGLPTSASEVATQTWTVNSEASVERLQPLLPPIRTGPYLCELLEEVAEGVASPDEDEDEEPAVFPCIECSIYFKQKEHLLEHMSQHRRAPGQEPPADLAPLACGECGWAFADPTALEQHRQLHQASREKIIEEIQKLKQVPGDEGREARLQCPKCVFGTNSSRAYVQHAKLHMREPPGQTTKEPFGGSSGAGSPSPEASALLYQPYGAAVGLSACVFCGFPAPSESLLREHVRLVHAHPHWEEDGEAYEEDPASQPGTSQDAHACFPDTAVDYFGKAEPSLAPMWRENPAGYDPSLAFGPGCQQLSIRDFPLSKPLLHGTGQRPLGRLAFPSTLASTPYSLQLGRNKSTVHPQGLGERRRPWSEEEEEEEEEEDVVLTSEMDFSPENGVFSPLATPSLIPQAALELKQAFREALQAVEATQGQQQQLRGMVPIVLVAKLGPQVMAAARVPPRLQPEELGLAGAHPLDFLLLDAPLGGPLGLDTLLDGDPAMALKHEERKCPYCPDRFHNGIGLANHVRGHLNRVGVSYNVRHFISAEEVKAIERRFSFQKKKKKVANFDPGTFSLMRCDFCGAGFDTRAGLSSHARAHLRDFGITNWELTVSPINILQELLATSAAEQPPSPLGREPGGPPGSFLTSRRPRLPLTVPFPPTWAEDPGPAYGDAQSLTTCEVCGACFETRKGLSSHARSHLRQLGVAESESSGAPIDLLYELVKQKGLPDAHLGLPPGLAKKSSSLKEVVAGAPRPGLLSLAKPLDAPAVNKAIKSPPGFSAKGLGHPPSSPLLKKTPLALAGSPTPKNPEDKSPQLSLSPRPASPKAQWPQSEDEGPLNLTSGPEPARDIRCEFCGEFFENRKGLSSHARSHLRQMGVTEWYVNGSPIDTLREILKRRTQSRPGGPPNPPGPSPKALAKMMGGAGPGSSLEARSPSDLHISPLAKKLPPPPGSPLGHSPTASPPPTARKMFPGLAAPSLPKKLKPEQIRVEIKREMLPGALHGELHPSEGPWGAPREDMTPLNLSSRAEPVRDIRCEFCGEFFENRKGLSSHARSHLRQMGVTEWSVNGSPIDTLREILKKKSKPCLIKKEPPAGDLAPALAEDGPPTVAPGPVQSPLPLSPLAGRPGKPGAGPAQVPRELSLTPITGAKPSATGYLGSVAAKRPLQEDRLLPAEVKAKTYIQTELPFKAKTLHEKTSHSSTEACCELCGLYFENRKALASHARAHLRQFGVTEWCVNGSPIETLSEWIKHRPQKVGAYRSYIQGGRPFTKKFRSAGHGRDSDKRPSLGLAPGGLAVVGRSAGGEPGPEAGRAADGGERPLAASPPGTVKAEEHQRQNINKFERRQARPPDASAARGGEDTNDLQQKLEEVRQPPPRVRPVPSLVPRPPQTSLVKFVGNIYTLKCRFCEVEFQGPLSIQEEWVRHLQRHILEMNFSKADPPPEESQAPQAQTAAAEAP
Chain of WIZ (Widely interspaced zinc finger) (Q96SW2 whole entry, the tested form may be a part): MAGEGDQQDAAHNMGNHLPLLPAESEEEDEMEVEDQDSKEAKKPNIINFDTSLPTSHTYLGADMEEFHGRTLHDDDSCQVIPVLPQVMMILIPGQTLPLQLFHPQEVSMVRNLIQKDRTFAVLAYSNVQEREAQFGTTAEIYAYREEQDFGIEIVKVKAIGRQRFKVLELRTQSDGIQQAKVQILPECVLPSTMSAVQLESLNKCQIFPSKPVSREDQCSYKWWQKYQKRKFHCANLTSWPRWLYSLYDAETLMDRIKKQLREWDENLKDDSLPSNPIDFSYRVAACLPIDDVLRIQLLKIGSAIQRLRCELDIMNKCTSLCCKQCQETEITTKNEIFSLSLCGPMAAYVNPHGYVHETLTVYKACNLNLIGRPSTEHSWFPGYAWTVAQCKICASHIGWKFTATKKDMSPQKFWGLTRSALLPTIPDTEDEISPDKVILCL
Chain of WIZ (Widely interspaced zinc finger) (Q16531 whole entry partner, the tested form may be a part): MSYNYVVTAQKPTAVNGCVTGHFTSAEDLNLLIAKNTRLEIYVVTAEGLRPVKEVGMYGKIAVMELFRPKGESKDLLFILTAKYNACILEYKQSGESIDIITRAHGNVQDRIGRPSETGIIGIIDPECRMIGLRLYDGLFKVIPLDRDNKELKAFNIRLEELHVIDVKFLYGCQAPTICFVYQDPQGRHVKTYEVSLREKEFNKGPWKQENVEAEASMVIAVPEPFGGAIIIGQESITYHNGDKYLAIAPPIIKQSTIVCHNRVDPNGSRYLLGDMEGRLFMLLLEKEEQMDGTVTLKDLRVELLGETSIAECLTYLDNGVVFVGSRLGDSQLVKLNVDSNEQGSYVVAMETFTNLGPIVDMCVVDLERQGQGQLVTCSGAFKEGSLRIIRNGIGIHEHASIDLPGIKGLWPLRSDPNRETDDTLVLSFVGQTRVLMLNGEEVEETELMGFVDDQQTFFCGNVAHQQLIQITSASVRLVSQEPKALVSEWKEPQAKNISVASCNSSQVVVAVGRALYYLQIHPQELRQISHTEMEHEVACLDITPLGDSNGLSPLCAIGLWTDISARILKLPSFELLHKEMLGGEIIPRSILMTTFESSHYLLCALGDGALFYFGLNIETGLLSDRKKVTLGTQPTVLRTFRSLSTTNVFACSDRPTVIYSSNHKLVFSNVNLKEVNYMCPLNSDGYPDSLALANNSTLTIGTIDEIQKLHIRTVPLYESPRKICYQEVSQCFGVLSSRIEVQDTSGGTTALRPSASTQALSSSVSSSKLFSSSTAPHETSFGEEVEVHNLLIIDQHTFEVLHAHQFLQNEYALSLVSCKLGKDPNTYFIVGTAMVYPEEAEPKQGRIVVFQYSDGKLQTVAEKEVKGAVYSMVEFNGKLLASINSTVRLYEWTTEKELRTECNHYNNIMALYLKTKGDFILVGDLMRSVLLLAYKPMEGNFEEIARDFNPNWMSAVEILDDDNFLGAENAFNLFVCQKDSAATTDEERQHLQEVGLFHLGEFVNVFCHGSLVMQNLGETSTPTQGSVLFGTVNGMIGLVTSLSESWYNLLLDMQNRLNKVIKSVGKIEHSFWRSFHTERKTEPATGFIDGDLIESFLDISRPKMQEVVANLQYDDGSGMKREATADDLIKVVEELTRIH
Experimental: (§1) The HiBiT degradation assay for WIZ and ZBTB7A in HUDEP-2 cells was performed as described below. HUDEP-2 cells engineered to express a HiBiT tag in either the WIZ (Widely interspaced zinc finger) or ZBTB7A (Zinc Finger And BTB Domain Containing 7A) proteins were maintained in low attachment flasks in StemSpan SFEM II media supplemented with Penicillin-Streptomycin (50 U/mL), rhSCF (50 ng/mL), rhEPO (3 IU/mL), dexamethasone (0.4 μg/mL) and doxycycline (1 μg/mL). Prior to start of the assay, cell count and viability were measured by trypan blue exclusion using the Vi-cell XR cell viability analyzer. For the HUDEP-2 WIZ HiBiT assay, cells were transferred to a 50 mL conical and centrifuged at 500 g for five minutes. Cells were resuspended in fresh StemSpan SFEM II media supplemented with Penicillin-Streptomycin (50 U/mL), rhSCF (50 ng/mL), rhEPO (3 IU/mL), dexamethasone (0.4 μg/mL) and doxycycline (1 μg/mL) at a density of 1.0×10^6 cells/ml. Forty microliters of cell suspension was dispensed into 384-well Low Flange White Flat Bottom Polystyrene TC-treated Microplates containing pre-dispensed compounds, using a VIAFLO 384 liquid hander, and placed in a 37° C. incubator with 5% CO2. […] After 24 hours of treatment, 40 μL Nano-Glo HiBiT Lytic Detection System reagent was dispensed into each well using a VIAFLO 384 liquid hander. Plates were incubated for 25 minutes at room temperature and the luminescence was read as relative luminescent units using the EnVision plate reader. EC50 and Y-min values were calculated using curves calculated from dotmatics software after the normalization to the DMSO control of 10 different concentrations: 10, 3.33, 1.11, 0.37, 0.12, 0.04 0.0137, 0.0046, 0.0015 and 0.0005 μM respectively.

[3] = biological target: ZBTB7A (Zinc Finger And BTB Domain Containing 7A) (Homo sapiens (Human), UniProt O95365+Q96SW2); experiment: HUDEP-2 ZBTB7A HiBiT degradation assay; conditions: HUDEP-2 ZBTB7A HiBiT cells, 24 hours treatment, luminescence; for DC50: read-out: ZBTB7A EC50
Chain of ZBTB7A (Zinc Finger And BTB Domain Containing 7A) (O95365 whole entry, the tested form may be a part): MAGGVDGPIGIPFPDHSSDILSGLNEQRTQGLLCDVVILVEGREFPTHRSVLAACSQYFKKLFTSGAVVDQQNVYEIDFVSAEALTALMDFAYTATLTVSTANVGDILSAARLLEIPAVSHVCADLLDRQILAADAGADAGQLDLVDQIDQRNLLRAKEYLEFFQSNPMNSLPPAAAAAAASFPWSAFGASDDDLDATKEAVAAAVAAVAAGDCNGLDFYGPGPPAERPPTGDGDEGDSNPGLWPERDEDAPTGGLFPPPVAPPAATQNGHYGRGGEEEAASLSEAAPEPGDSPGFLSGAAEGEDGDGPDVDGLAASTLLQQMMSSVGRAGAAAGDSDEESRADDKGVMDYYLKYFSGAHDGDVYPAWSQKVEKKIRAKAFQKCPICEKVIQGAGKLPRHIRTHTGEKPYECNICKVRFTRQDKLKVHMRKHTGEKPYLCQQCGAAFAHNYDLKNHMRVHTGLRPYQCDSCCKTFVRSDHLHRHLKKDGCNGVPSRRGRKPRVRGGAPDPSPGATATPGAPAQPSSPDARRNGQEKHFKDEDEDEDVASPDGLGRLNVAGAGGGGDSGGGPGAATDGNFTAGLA
Chain of ZBTB7A (Zinc Finger And BTB Domain Containing 7A) (Q96SW2 whole entry, the tested form may be a part): as the sequence (Q96SW2 whole entry, the tested form may be a part) above
Chain of ZBTB7A (Zinc Finger And BTB Domain Containing 7A) (Q16531 whole entry partner, the tested form may be a part): as the sequence (Q16531 whole entry partner, the tested form may be a part) above
Experimental: as §1
For the HUDEP-2 ZBTB7A HiBiT assay, cell count and viability were measured by trypan blue exclusion using the Vi-cell XR cell viability analyzer and the cells were transferred to a 50 mL conical and centrifuged at 500 g for five minutes. Cells were resuspended in fresh IMDM media supplemented with L-Glutamine (1×), Penicillin-Streptomycin (50 U/mL), holo-transferrin (330 μg/mL), heparin (2 IU/mL), r-human Insulin (10 μg/mL), rhEPO (3 IU/mL), rhSCF (100 ng/mL)+Dox (1 μg/mL) and 5% human plasma in low attachment flasks, which were placed in a 37° C. incubator with 5% CO2. After 48 hours, cell count and viability were measured by trypan blue exclusion using the Vi-cell XR cell viability analyzer. The HUDEP-2 ZBTB7A cells were transferred to a 50 mL conical, centrifuged at 500 g for five minutes and resuspended at a density of 1.0×10^6 cells/ml in IMDM media supplemented with L-Glutamine (1×), Penicillin-Streptomycin (50 U/mL), holo-transferrin (330 μg/mL), heparin (2 IU/mL), r-human Insulin (10 μg/mL), rhEPO (3 IU/mL), rhSCF (100 ng/mL)+Dox (1 μg/mL) and 5% human plasma. Forty microliters of cell suspension was dispensed into 384-well Low Flange White Flat Bottom Polystyrene TC-treated Microplates containing pre-dispensed compounds, using a VIAFLO 384 liquid hander, and placed in a 37° C. incubator with 5% CO2. […] After 24 hours of treatment, 40 μL Nano-Glo HiBiT Lytic Detection System reagent was dispensed into each well using a VIAFLO 384 liquid hander. Plates were incubated for 25 minutes at room temperature and the luminescence was read as relative luminescent units using the EnVision plate reader. EC50 and Y-min values were calculated using curves calculated from dotmatics software after the normalization to the DMSO control of 10 different concentrations: 10, 3.33, 1.11, 0.37, 0.12, 0.04 0.0137, 0.0046, 0.0015 and 0.0005 μM respectively.

COc1ccc(-c2cc3c(cnn3C)cc2Nc2cccc3c2C(=O)N(C2CCC(=O)NC2=O)C3=O)cc1F (stereo not drawn) [Compound 14, 2-(2,6-dioxopiperidin-3-yl)-4-((6-(3-fluoro-4-methoxyphenyl)-1-methyl-1H-indazol-5-yl)amino)isoindoline-1,3-dione]
activation at 1 µM [1]: 66 to 100%
DC50 [2]: > 100 nM
EC50 [3]: > 100 nM

Cn1ncc2cc(Nc3cccc4c3C(=O)N(C3CCC(=O)NC3=O)C4=O)c(Oc3ccccc3)cc21 (stereo not drawn) [Compound 15, 2-(2,6-dioxopiperidin-3-yl)-4-((1-methyl-6-phenoxy-1H-indazol-5-yl)amino)isoindoline-1,3-dione]
activation at 1 µM [1]: 66 to 100%
EC50 [2]: < 10 nM
DC50 [3]: 30 to 100 nM

O=C1CCC(N2C(=O)c3cccc(Nc4cc5cnn(C6CCOCC6)c5cc4Oc4cccc(F)c4)c3C2=O)C(=O)N1 (stereo not drawn) [Compound 16, 2-(2,6-dioxopiperidin-3-yl)-4-((6-(3-fluorophenoxy)-1-(tetrahydro-2H-pyran-4-yl)-1H-indazol-5-yl)amino)isoindoline-1,3-dione]
activation at 1 µM [1]: 66 to 100%
EC50 [2]: < 10 nM
EC50 [3]: > 100 nM

Cn1ncc2cc(Nc3cccc4c3C(=O)N(C3CCC(=O)NC3=O)C4=O)c(Oc3ccc(F)cc3)cc21 (stereo not drawn) [Compound 17, 2-(2,6-dioxopiperidin-3-yl)-4-((6-(4-fluorophenoxy)-1-methyl-1H-indazol-5-yl)amino)isoindoline-1,3-dione]
activation at 1 µM [1]: 66 to 100%
DC50 [2]: 10 to 100 nM
DC50 [3]: 30 to 100 nM

COc1cc2c(cnn2C2CCOCC2)cc1Nc1cccc2c1C(=O)N(C1CCC(=O)NC1=O)C2=O (stereo not drawn) [Compound 18, 2-(2,6-dioxopiperidin-3-yl)-4-((6-methoxy-1-(tetrahydro-2H-pyran-4-yl)-1H-indazol-5-yl)amino)isoindoline-1,3-dione]
activation at 1 µM [1]: 66 to 100%
EC50 [2]: < 10 nM
DC50 [3]: 30 to 100 nM

Cc1cc(-c2cc3c(cnn3C)cc2Nc2cccc3c2C(=O)N(C2CCC(=O)NC2=O)C3=O)ccn1 (stereo not drawn) [Compound 19, 2-(2,6-dioxopiperidin-3-yl)-4-((1-methyl-6-(2-methylpyridin-4-yl)-1H-indazol-5-yl)amino)isoindoline-1,3-dione]
activation at 1 µM [1]: 66 to 100%
DC50 [2]: > 100 nM
EC50 [3]: > 100 nM

Cc1c(Nc2cccc3c2C(=O)N(C2CCC(=O)NC2=O)C3=O)ccc2c1cnn2C1CCOCC1 (stereo not drawn) [Compound 20, 2-(2,6-dioxopiperidin-3-yl)-4-((4-methyl-1-(tetrahydro-2H-pyran-4-yl)-1H-indazol-5-yl)amino)isoindoline-1,3-dione]
activation at 1 µM [1]: 33 to 66%
EC50 [2]: < 10 nM
EC50 [3]: > 100 nM

Cc1cc(Oc2ccccc2)c(Nc2cccc3c2C(=O)N(C2CCC(=O)NC2=O)C3=O)cn1 (stereo not drawn) [Compound 21, 2-(2,6-dioxopiperidin-3-yl)-4-((6-methyl-4-phenoxypyridin-3-yl)amino)isoindoline-1,3-dione]
activation at 1 µM [1]: 33 to 66%
EC50 [2]: < 10 nM
DC50 [3]: 30 to 100 nM

Cn1ncc2cc(Nc3cccc4c3C(=O)N(C3CCC(=O)NC3=O)C4=O)c(C3CCOCC3)cc21 (stereo not drawn) [Compound 22, 2-(2,6-dioxopiperidin-3-yl)-4-((1-methyl-6-(tetrahydro-2H-pyran-4-yl)-1H-indazol-5-yl)amino)isoindoline-1,3-dione]
activation at 1 µM [1]: 33 to 66%
DC50 [2]: 10 to 100 nM
EC50 [3]: > 100 nM

Cc1cc(-c2cc3c(cc2Nc2cccc4c2C(=O)N(C2CCC(=O)NC2=O)C4=O)nc(C)n3C)ccn1 (stereo not drawn) [Compound 23, 4-((1,2-dimethyl-6-(2-methylpyridin-4-yl)-1H-benzo[d]imidazol-5-yl)amino)-2-(2,6-dioxopiperidin-3-yl)isoindoline-1,3-dione]
activation at 1 µM [1]: 33 to 66%
DC50 [2]: > 100 nM
EC50 [3]: > 100 nM

Cc1cc(-c2cc3c(cnn3C)cc2Nc2cccc3c2C(=O)N(C2CCC(=O)NC2=O)C3=O)cnn1 (stereo not drawn) [Compound 24, 2-(2,6-dioxopiperidin-3-yl)-4-((1-methyl-6-(6-methylpyridazin-4-yl)-1H-indazol-5-yl)amino)isoindoline-1,3-dione]
activation at 1 µM [1]: 33 to 66%
DC50 [2]: > 100 nM
EC50 [3]: > 100 nM

Cn1ncc2cc(Nc3cccc4c3C(=O)N(C3CCC(=O)NC3=O)C4=O)c(Oc3cccc(Cl)c3)cc21 (stereo not drawn) [Compound 25, 4-((6-(3-chlorophenoxy)-1-methyl-1H-indazol-5-yl)amino)-2-(2,6-dioxopiperidin-3-yl)isoindoline-1,3-dione]
activation at 1 µM [1]: 33 to 66%
DC50 [2]: 10 to 100 nM
EC50 [3]: > 100 nM
